From US20240124444A1 (Celgene Corporation, priority 2020, published 2024)
Where two headings read alike, the source gives them in different places.

System: C. parvum strain UGA1
Test: C. parvum growth inhibition assay (Nluc luminescence in HCT-8 cells)
Type: cell-based, Cryptosporidium parvum
Conditions: for inhibition at 1 µM / inhibition at 10 µM: HCT-8; for inhibition at 1 µM: read-out: % inh @ 1 uM C. parvum; for inhibition at 10 µM: read-out: % inh @ 10 uM C. parvum; for EC50: C. parvum growth inhibition in HCT-8 cells, 48 hours, 6 concentrations 10-0.04 μM
[1] = Cryptosporidium parvum, single point inhibition at 1 uM
[2] = Cryptosporidium parvum, single point inhibition at 10 uM
[3] = Cryptosporidium parvum, HCT-8, 48 h
[4] = Cryptosporidium parvum, single point inhibition @ 1 uM
[5] = Cryptosporidium parvum, single point inhibition @ 10 uM

Structure (SMILES)	inhibition at 1 µM [1]	inhibition at 10 µM [2]	also measured
Cn1cc(C(=O)Nc2cc3[nH]c(-c4cccnc4)cc3cn2)cn1 [Example 332, 1-methyl-N-(2-(pyridin-3-yl)-1H-pyrrolo[3,2-c]pyridin-6-yl)-1H-pyrazole-4-carboxamide]	0 to 33%	0 to 33%	–
CCCOc1nccc(-c2cc3cnc(NC(=O)c4cnn(C)c4)cc3[nH]2)n1 [Example 312, 1-methyl-N-(2-(2-propoxypyrimidin-4-yl)-1H-pyrrolo[3,2-c]pyridin-6-yl)-1H-pyrazole-4-carboxamide]	0 to 33%	0 to 33%	–
COc1nccc(-c2cc3cnc(NC(=O)c4cn(CC5CCOC5)nc4C)cc3[nH]2)n1 (stereo in doubt) [Example 326, (S)-N-(2-(2-methoxypyrimidin-4-yl)-1H-pyrrolo[3,2-c]pyridin-6-yl)-3-methyl-1-((tetrahydrofuran-3-yl)methyl)-1H-pyrazole-4-carboxamide]	0 to 33%	0 to 33%	–
CCOc1nccc(-c2cc3cnc(NC(=O)c4ccc(OC)c(OC)c4)cc3[nH]2)n1 [Example 321, N-(2-(2-ethoxypyrimidin-4-yl)-1H-pyrrolo[3,2-c]pyridin-6-yl)-3,4-dimethoxybenzamide]	0 to 33%	0 to 33%	–
COC1CCC(OC(=O)Nc2cc3[nH]c(-c4ccnc(C)c4)cc3cn2)CC1 (stereo not drawn) [Example 206, 4-methoxycyclohexyl 2-(2-methylpyridin-4-yl)-1H-pyrrolo[3,2-c]pyridin-6-ylcarbamate]	0 to 33%	67 to 100%	–
Cn1cc(C(=O)Nc2cc3[nH]c(C4CC4)cc3cn2)cn1 [Example 88, N-(2-cyclopropyl-1H-pyrrolo[3,2-c]pyridin-6-yl)-1-methyl-1H-pyrazole-4-carboxamide]	–	–	EC50 [3]: > 1 µM; inhibition at 1 µM [4]: 33 to 66%; inhibition at 10 µM [5]: 0 to 33%
Cc1cc(-c2cc3cnc(NC(=O)NC4CC4)cc3[nH]2)ccn1 [Example 209, 1-cyclopropyl-3-(2-(2-methylpyridin-4-yl)-1H-pyrrolo[3,2-c]pyridin-6-yl)urea]	0 to 33%	67 to 100%	–
Cn1cc(-c2cc3cnc(Nc4ccc(F)cc4)cc3n2C)cn1 [Example 235, N-(4-fluorophenyl)-1-methyl-2-(1-methyl-1H-pyrazol-4-yl)-1H-pyrrolo[3,2-c]pyridin-6-amine]	0 to 33%	33 to 66%	–
COc1nccc(-c2cc3cnc(NC(=O)C4C5CCCC54)cc3[nH]2)n1 (stereo not drawn) [Example 176, N-(2-(2-methoxypyrimidin-4-yl)-1H-pyrrolo[3,2-c]pyridin-6-yl)bicyclo[3.1.0]hexane-6-carboxamide]	–	–	inhibition at 1 µM [4]: 0 to 33%; inhibition at 10 µM [5]: 67 to 100%
Cn1cc(C(=O)Nc2cc3[nH]c(-c4cnc(C#N)cn4)cc3cn2)cn1 [Example 303, N-(2-(5-cyanopyrazin-2-yl)-1H-pyrrolo[3,2-c]pyridin-6-yl)-1-methyl-1H-pyrazole-4-carboxamide]	0 to 33%	0 to 33%	–
Cn1c(-c2ccnc(NCC(F)(F)F)n2)cc2cnc(NC3CCCOC3)cc21 (stereo in doubt) [Example 379, (S)-1-methyl-N-(tetrahydro-2H-pyran-3-yl)-2-(2-(2,2,2-trifluoroethylamino)pyrimidin-4-yl)-1H-pyrrolo[3,2-c]pyridin-6-amine]	–	–	EC50 [3]: > 1 µM
CC(C)CC(=O)Nc1cc2[nH]c(-c3ccncc3)cc2cn1 [Example 134, 3-methyl-N-(2-(pyridin-4-yl)-1H-pyrrolo[3,2-c]pyridin-6-yl)butanamide]	–	–	inhibition at 1 µM [4]: 0 to 33%; inhibition at 10 µM [5]: 67 to 100%
CC(C)n1cc(C(=O)Nc2cc3[nH]c(-c4ccnc(OCCC(F)(F)F)n4)cc3cn2)cn1 [Example 175, 1-isopropyl-N-(2-(2-(3,3,3-trifluoropropoxy)pyrimidin-4-yl)-1H-pyrrolo[3,2-c]pyridin-6-yl)-1H-pyrazole-4-carboxamide]	–	–	inhibition at 1 µM [4]: 0 to 33%; inhibition at 10 µM [5]: 67 to 100%
Cc1cc(-c2cc3cnc(NC4CCCOC4)cc3[nH]2)ccn1 (stereo in doubt) [Example 356, (R)-2-(2-methylpyridin-4-yl)-N-(tetrahydro-2H-pyran-3-yl)-1H-pyrrolo[3,2-c]pyridin-6-amine]	–	–	EC50: < 0.5 µM
CC(C)n1cc(C(=O)Nc2cc3[nH]c(-c4ccnc(N(C)CC(F)(F)F)n4)cc3cn2)cn1 [Example 232, 1-isopropyl-N-(2-(2-(methyl(2,2,2-trifluoroethyl)amino)pyrimidin-4-yl)-1H-pyrrolo[3,2-c]pyridin-6-yl)-1H-pyrazole-4-carboxamide]	0 to 33%	33 to 66%	–
COCc1cc2cnc(NC(=O)c3cnn(C)c3)cc2[nH]1 [Example 260, N-(2-(methoxymethyl)-1H-pyrrolo[3,2-c]pyridin-6-yl)-1-methyl-1H-pyrazole-4-carboxamide]	0 to 33%	0 to 33%	–
Cc1c[nH]c2cc(NC(=O)C3CC3)ncc12 [Example 115, N-(3-methyl-1H-pyrrolo[3,2-c]pyridin-6-yl)cyclopropanecarboxamide]	–	–	EC50 [3]: > 1 µM
CC(Oc1nccc(-c2cc3cnc(NC(=O)c4cnn(C)c4)cc3[nH]2)n1)C(F)(F)F (stereo in doubt) [Example 314, (R)-1-methyl-N-(2-(2-(1,1,1-trifluoropropan-2-yloxy)pyrimidin-4-yl)-1H-pyrrolo[3,2-c]pyridin-6-yl)-1H-pyrazole-4-carboxamide]	0 to 33%	0 to 33%	–
Cn1cc(C(=O)Nc2cc3[nH]c(CCCO)cc3cn2)cn1 [Example 89, N-(2-(3-hydroxypropyl)-1H-pyrrolo[3,2-c]pyridin-6-yl)-1-methyl-1H-pyrazole-4-carboxamide]	–	–	EC50 [3]: > 1 µM; inhibition at 1 µM [4]: 0 to 33%; inhibition at 10 µM [5]: 0 to 33%
Cc1cc(-c2cc3cnc(NC(=O)[C@H]4C[C@H](O)C4)cc3[nH]2)ccn1 [Example 187, (1r,3r)-3-hydroxy-N-(2-(2-methylpyridin-4-yl)-1H-pyrrolo[3,2-c]pyridin-6-yl)cyclobutanecarboxamide]	–	–	inhibition at 1 µM [4]: 33 to 66%; inhibition at 10 µM [5]: 67 to 100%
O=C(Nc1cc2[nH]c(C3CCOCC3)cc2cn1)C1CC1 [Example 94, N-(2-(tetrahydro-2H-pyran-4-yl)-1H-pyrrolo[3,2-c]pyridin-6-yl)cyclopropanecarboxamide]	–	–	EC50 [3]: > 1 µM; inhibition at 1 µM [4]: 0 to 33%; inhibition at 10 µM [5]: 0 to 33%
FC(F)(F)CNc1nccc(-c2cc3cnc(NC4CCOC4)cc3[nH]2)n1 (stereo in doubt) [Example 366, (R)-N-(tetrahydrofuran-3-yl)-2-(2-(2,2,2-trifluoroethylamino)pyrimidin-4-yl)-1H-pyrrolo[3,2-c]pyridin-6-amine]	–	–	EC50 [3]: < 0.5 µM
Cc1cc(-c2cc3cnc(NC4COC4)cc3[nH]2)ccn1 [Example 113, 2-(2-methylpyridin-4-yl)-N-(oxetan-3-yl)-1H-pyrrolo[3,2-c]pyridin-6-amine]	–	–	EC50 [3]: > 1 µM
Cc1cc(C(=O)Nc2cc3[nH]c(-c4ccnc(NCC(F)(F)F)c4)cc3cn2)nn1C [Example 305, 1,5-dimethyl-N-(2-(2-(2,2,2-trifluoroethylamino)pyridin-4-yl)-1H-pyrrolo[3,2-c]pyridin-6-yl)-1H-pyrazole-3-carboxamide]	0 to 33%	0 to 33%	–
Cn1cc(C(=O)Nc2cc3[nH]c(-c4cnc(C(F)(F)F)cn4)cc3cn2)cn1 [Example 304, 1-methyl-N-(2-(5-(trifluoromethyl)pyrazin-2-yl)-1H-pyrrolo[3,2-c]pyridin-6-yl)-1H-pyrazole-4-carboxamide]	33 to 66%	0 to 33%	–
